Laboratory results: patent publication EP4061322B1 (Institut des Sciences et Industries du Vivant et de …, priority 2019, dated 2021)
Like-named read-outs stand apart in the source and are kept apart here.

Columns and labels:
[1] = UV-Vis absorption spectrum (anti-UVA and blue light properties); type: physicochemical; set-up: λmax: unit not given here
Source text: Un spectre UV-Vis a été réalisé dans l'éthanol à 10^-5 mol/L pour les composés 1 à 7, qui sont des dérivés furaniques de l'acide de Medrum. L'Avobenzone, une molécule très largement utilisée comme filtre UVA dans les crèmes solaires, a été utilisée en tant que référence.
Cette méthodologie a été employée pour évaluer les propriétés anti-UV des composés 8 à 11, qui sont des dérivés phénoliques de l'acide de Medrum, des composés 12 à 15 qui sont des dérivés pyrroliques de l'acide de Meldrum, des composés 16 à 18 qui sont des dérivés vinylphénol de l'acide de Meldrum, le composé 19 qui est un dérivé vinylfurane de l'acide de Meldrum.

[2] = Photostability under UV exposure; type: physicochemical; conditions: for A (t=0 min): absorbance before UV exposure
Source text: La stabilité des composés 1 à 7 aux UV a été étudiée par soumission à une exposition (λ : 300 nm, P : 8.32 W/m^2) pendant une heure.
L'Avobenzone a été utilisée comme molécule de référence. Cette molécule est connue pour être […] sous exposition UV, ce qui n'est pas du tout le cas d'autres composés bio-sourcés.
La photostabilité des composés 8 à 11 a également été étudiée, de manière identique au test appliqué aux composés 1 à 7. Les résultats obtenus sont présentés dans le Tableau 2. […] Cette méthodologie a été appliquée à l'ensemble des molécules décrites ci-dessus. Tableau 2 : Stabilité des composés 8 à 11 soumis à une exposition aux UV.

[3] = biological target: T1, AR (récepteur des androgènes) (Homo sapiens, UniProt P10275); assay: Endocrine system: receptor activity in presence of compound (agonist effect); type: cell-based; conditions: Figure 6, C = 10 µM; even at the highest concentrations
T1 sequence (P10275 1-920): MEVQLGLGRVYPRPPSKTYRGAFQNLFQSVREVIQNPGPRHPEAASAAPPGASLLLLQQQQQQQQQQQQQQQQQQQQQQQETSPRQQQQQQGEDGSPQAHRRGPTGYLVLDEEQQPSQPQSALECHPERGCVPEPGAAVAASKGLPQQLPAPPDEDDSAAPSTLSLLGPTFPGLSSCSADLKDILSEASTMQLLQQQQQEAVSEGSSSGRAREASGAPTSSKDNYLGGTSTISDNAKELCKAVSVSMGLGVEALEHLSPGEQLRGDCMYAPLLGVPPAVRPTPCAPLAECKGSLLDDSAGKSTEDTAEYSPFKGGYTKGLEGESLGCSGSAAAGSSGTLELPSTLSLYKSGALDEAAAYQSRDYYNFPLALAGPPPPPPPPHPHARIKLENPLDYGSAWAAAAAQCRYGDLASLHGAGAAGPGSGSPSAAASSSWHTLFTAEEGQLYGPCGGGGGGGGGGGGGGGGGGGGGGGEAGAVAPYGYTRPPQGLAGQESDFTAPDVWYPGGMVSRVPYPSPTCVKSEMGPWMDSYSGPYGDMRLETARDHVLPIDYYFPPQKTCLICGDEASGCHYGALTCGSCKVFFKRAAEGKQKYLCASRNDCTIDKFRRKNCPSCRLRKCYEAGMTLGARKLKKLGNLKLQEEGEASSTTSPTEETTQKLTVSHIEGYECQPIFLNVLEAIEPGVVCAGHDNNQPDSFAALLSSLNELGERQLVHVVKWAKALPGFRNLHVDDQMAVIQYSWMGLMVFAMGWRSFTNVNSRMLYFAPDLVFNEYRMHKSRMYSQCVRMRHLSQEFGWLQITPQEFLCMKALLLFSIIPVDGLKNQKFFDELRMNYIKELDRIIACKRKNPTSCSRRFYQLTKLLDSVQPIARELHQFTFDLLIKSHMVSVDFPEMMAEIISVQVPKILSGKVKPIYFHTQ
Source text: (§1) L'effet des composés 1 et 4 sur le système endocrinien a été évalué pour leurs propriétés agonistes et antagonistes sur différents récepteurs : ERα (récepteur œstrogène alpha), AR (récepteur des androgènes) et PXR (pregnane X receptor). Un premier test consiste à étudier l'activité des récepteurs en présence du composé 1 ou 4 (effet agoniste). […] Un second test vise à l'étude de l'activité des récepteurs en présence du composé 1 ou 4 et d'une molécule de référence pour chaque récepteur (effet antagoniste).

[4] = biological target: T2, ERα (récepteur œstrogène alpha) (Homo sapiens, UniProt P03372); assay: as above; type: cell-based; conditions: Figure 6, C = 10 µM; even at the highest concentrations
T2 sequence (P03372 1-595): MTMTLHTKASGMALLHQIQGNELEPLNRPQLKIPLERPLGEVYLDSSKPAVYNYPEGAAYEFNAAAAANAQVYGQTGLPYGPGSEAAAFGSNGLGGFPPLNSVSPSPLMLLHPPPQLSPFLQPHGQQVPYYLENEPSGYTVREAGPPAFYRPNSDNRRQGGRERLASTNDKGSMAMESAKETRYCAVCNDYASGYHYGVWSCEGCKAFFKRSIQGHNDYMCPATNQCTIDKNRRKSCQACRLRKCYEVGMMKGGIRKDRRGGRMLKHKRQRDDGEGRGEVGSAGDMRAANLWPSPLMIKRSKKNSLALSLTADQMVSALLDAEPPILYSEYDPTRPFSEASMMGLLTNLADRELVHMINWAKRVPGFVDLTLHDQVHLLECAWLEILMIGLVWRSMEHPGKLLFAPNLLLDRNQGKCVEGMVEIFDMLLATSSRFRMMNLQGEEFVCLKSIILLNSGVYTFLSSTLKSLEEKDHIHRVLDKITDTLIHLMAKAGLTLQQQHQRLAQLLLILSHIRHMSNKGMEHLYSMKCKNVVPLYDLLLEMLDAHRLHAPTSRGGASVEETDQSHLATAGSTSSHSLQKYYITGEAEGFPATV
Source text: as §1

[5] = biological target: T3, PXR (pregnane X receptor) (Homo sapiens, UniProt O75469); assay: as above; type: cell-based; conditions: Figure 6, C = 10 µM; even at the highest concentrations
T3 sequence (O75469 1-434): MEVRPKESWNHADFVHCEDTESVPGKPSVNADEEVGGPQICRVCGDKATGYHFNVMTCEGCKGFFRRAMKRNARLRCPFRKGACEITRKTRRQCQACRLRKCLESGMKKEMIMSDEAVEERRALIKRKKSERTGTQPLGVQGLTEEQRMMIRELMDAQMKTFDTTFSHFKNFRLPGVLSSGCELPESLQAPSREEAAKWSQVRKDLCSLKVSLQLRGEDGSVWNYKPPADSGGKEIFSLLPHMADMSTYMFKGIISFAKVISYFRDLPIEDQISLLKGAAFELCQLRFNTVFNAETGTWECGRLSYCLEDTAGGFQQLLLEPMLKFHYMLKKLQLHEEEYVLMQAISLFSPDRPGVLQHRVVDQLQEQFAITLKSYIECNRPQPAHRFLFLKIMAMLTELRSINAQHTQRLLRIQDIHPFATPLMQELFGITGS
Source text: as §1

[6] = biological target: T1, AR (récepteur des androgènes); assay: Endocrine system: receptor activity in presence of compound and reference molecule (antagonist effect); type: cell-based; conditions: Figure 8; with reference molecule; even at the highest concentrations
Source text: as §1

[7] = biological target: T2, ERα (récepteur œstrogène alpha); assay: as above; type: cell-based; conditions: Figure 7; with reference molecule; even at the highest concentrations
Source text: as §1

[8] = biological target: T3, PXR (pregnane X receptor); assay: as above; type: cell-based; conditions: Figure 9; with reference molecule; even at the highest concentrations
Source text: as §1

[9] = Antioxidant properties (IC50 compared with BHA and BHT); type: biochemical
Source text: Les propriétés anti-oxydantes des composés 8 à 11 ont été évaluées par comparaison de leur IC50 avec celles de deux molécules de référence que sont la BHA et le BHT. Ces deux molécules sont très largement utilisées dans les formulations cosmétiques bien qu'elles soient controversées pour leur effet potentiellement cancérigène.

[10] = Tableau 1, UV exposure λ 300 nm, P 8.32 W/m^2, one hour
[11] = Tableau 2, same test as for compounds 1 to 7 (λ 300 nm, P 8.32 W/m^2, one hour)
[12] = read-out: IC50 (nmol); antioxidant properties

CC1(C)OC(=O)C(=Cc2ccc(CO)o2)C(=O)O1 [compound 4, 5-[[5-(Hydroxymethyl)-2-furanyl]methylene]-2,2-dimethyl-1,3-dioxane-4,6-dione]
λmax ([1]; Tableau 1): 374 | Perte d'activité (%) [2, 10]: < 5% | Perte d'activité (%) ([2]; Tableau 1, UV exposure λ 300 nm, P 8.32 W/m^2, one hour, listed as Composé (4)): 3,4% | A (t=0 min) ([2]; Tableau 1): 0,28814 | effet agoniste (activité du récepteur AR) [3]: n'induisent pas une activité anormale des récepteurs | effet agoniste (activité du récepteur ERα) [4]: n'induisent pas une activité anormale des récepteurs | effet agoniste (activité du récepteur PXR) [5]: n'induisent pas une activité anormale des récepteurs | effet antagoniste sur le récepteur AR [6]: n'empêchent pas l'activité des récepteurs envers les molécules de référence | effet antagoniste sur le récepteur ERα [7]: n'empêchent pas l'activité des récepteurs envers les molécules de référence | effet antagoniste sur le récepteur PXR [8]: n'empêchent pas l'activité des récepteurs envers les molécules de référence

CC1(C)OC(=O)C(=CC=Cc2ccco2)C(=O)O1 [compound 19, 5-[3-(2-furanyl)-2-propen-1-ylidene]-2,2-dimethyl-1,3-Dioxane-4,6-dione]
absorption UVA et lumière bleue (spectre UV-Vis) ([1]; in ethanol at 10^-5 mol/L, Figure 2): comparables à ceux obtenus avec les composés 1 à 7

CC(=O)OCc1ccc(C=C2C(=O)OC(C)(C)OC2=O)o1 [compound 6, 5-[[5-((Acetyloxy)methyl)-2-furanyl]methylene]-2,2-dimethyl-1,3-dioxane-4,6-dione]
λmax ([1]; Tableau 1): 366 | Perte d'activité (%) [2, 10]: 12,0% | A (t=0 min) ([2]; Tableau 1): 0,28728

Cc1cc(C=C2C(=O)OC(C)(C)OC2=O)oc1C [compound 2, 5-[(4,5-Dimethyl-2-furanyl)methylene]-2,2-dimethyl-1,3-dioxane-4,6-dione]
λmax ([1]; Tableau 1): 400 | Perte d'activité (%) [2, 10]: < 5% | Perte d'activité (%) ([2]; Tableau 1, UV exposure λ 300 nm, P 8.32 W/m^2, one hour, listed as Composé (2)): 4,2% | A (t=0 min) ([2]; Tableau 1): 0,37961

CC1(C)OC(=O)C(=Cc2ccc(O)cc2)C(=O)O1 [Composé 10, 5-(4-Hydroxybenzylidene)-2,2-dimethyl-1,3-dioxane-4,6-dione]
λmax ([1]; Tableau 2): 374 | A (t=0 min) ([2]; Tableau 2): 0,29431 | Perte d'activité (%) [2, 11]: 3,47% | IC50 (nmol) ([9]; antioxidant properties): Pas d'effet

CC1(C)OC(=O)C(=Cc2ccc(O)c(O)c2)C(=O)O1 [Composé 9]
λmax ([1]; Tableau 2): 398 | A (t=0 min) ([2]; Tableau 2): 0,26515 | Perte d'activité (%) [2, 11]: 6,37% | IC50 [9, 12]: 2.9 nmol | capacité antioxydante ([9]; result in words): remarquables

COc1ccc(C(=O)CC(=O)c2ccc(C(C)(C)C)cc2)cc1 [Avobenzone, reference compound]
λmax ([1]; Tableau 1): 350 | Perte d'activité (%) [2, 10]: 0,6% | A (t=0 min) ([2]; Tableau 1): 0,36735

COc1ccc(O)c(C(C)(C)C)c1 [BHA, reference compound]
IC50 [9, 12]: 6.51 nmol

CCc1ccc(C=C2C(=O)OC(C)(C)OC2=O)o1 [compound 3, 5-[(5-Ethyl-2-furanyl)methylene]-2,2-dimethyl-1,3-dioxane-4,6-dione]
λmax ([1]; Tableau 1): 374 | Perte d'activité (%) [2, 10]: < 5% | Perte d'activité (%) ([2]; Tableau 1, UV exposure λ 300 nm, P 8.32 W/m^2, one hour, listed as Composé (3)): 5,1% | A (t=0 min) ([2]; Tableau 1): 0,31307

CC1(C)OC(=O)C(=Cc2cc3ccccc3o2)C(=O)O1 [compound 5, 5-(2-benzofuranylmethylene)-2,2-dimethyl-1,3-dioxane-4,6-dione]
λmax ([1]; Tableau 1): 386 | Perte d'activité (%) [2, 10]: 28,7% | A (t=0 min) ([2]; Tableau 1): 0,32310

COc1cc(C=C2C(=O)OC(C)(C)OC2=O)cc(OC)c1O
λmax ([1]; Tableau 2): 405 | A (t=0 min) ([2]; Tableau 2): 0,24614 | Perte d'activité (%) [2, 11]: 11,43% | IC50 ([9]; antioxidant properties; read-out: IC50 (nmol)): 3.58 nM | capacité antioxydante ([9]; result in words): remarquables

CC1(C)OC(=O)C(=Cc2ccc(C=C3C(=O)OC(C)(C)OC3=O)o2)C(=O)O1 [compound 7, 5,5'-(2,5-furandiyldimethylidyne)bis-2,2-dimethyl-1,3-dioxane-4,6-dione]
λmax ([1]; Tableau 1): 406 - 426 | Perte d'activité (%) [2, 10]: 12,4% | A (t=0 min) ([2]; Tableau 1): 0,47642

Cc1cc(C(C)(C)C)c(O)c(C(C)(C)C)c1 [BHT, reference compound]
IC50 [9, 12]: 13.1 nmol
